Data: US10052311B2, “PPAR compounds for use in the treatment of fibrotic diseases” (INVENTIVA, priority 2014, dated 2018)

Columns and labels:
[1] = test system: primary human dermal fibroblasts; assay: PDGF-induced proliferation, EdU incorporation assay; format: cell-based; details: Fibroblast, 24 h, NC: not converged
Protocol: (§1) The ability of compound A to inhibit PDGF-induced lung and dermal fibroblasts proliferation was determined by performing EdU (5-ethynyl-2′-deoxyuridine) incorporation assays. These assays were carried out using primary human lung or skin fibroblasts (Promocell). The cells were plated in 96-well plates in full growth medium for 24 h, followed by 24 h starvation in serum-free medium. The medium was then replaced by fresh medium containing PDGF and compound A to be tested (at concentrations ranging from 10^−4 M to 4.5 10^−8 M) for another 24 h. EdU was added to the cells for the last 16 h of the compound treatment. The culture medium was then removed, the cells were fixed with formaldehyde and the EdU incorporated in the DNA of diving cells was quantified using fluorescent Click-it assay according to the manufacturer's instructions (Invitrogen). […] Results were expressed as % of EdU-positive cells out of the total cell number. The results present the mean of biological triplicates. Dose-effect curves and IC50 values were calculated using the GraphPad Prism software.

[2] = test system: primary human lung fibroblasts; assay: as above; format: cell-based; details: Fibroblast, 24 h, NC: not converged
Protocol: as §1

bleomycin-exposed mice = assay: Bleomycin-induced pulmonary fibrosis in mice; details: vs vehicle
Protocol: At the end of the treatment, animals were sacrificed and plasma samples and livers were harvested. Expression of genes that are known to be implicated in the pulmonary inflammation process was quantified and plasmatic levels of lung parameters were measured.
The animals were housed in groups of 3-10 in polypropylene cages (floor area=1032 cm^2) under standard conditions: room temperature (22±2° C.), hygrometry (55±10%), light/dark cycle (12 h/12 h), air replacement (15-20 volumes/hour), water and food (SDS, RM1) ad libitum. Mice were allowed to accommodate themselves for at least 5 days prior to the experimentation. Mice were numbered by marking their tail using indelible markers.
Bleomycin (Laboratoire Bellon) was dissolved in 0.9% NaCl (CDM Lavoisier, France) just before use.
On day 14, 2 hours after dosing, animals were anaesthetised with pentobarbital (60 mg/kg, ip) and blood was collected using cardiac puncture. […] Blood sampling (0.9 mL of total blood) was placed in pre-chilled 2-mL lithium-heparin collection tubes. The blood samples were gently mixed, placed on crushed ice and centrifuged within 30 min of sampling at approximately 1500×g for 10 min at approximately +4° C. For each blood sampling, the resultant plasma was separated into 2 aliquots (at least 100 μL each) and transferred using disposable plastic material into polypropylene tubes. The samples were immediately transferred in the upright position to a freezer where they were kept at −20° C.
After terminal blood sampling, lung tissue was removed: • A first tissue sample (middle lobe) was harvested and fixed with paraformaldehyde, and kept at 5±3° C. • A second tissue sample (right lobe) was frozen in liquid nitrogen and kept at −20° C.
For the quantification of collagen, sections were stained with Picro-Sirius red and counterstained with Mayer's haematoxylin. […] For all slides, analysis was performed by a single experimenter strictly in the same conditions.
mRNA extraction was performed on small frozen lung samples (50-100 mg). Briefly, samples were cryogenically ground with mortar and pestle. […] RNA quantity was determined with Nanodrop (ND2000 Thermo Scientific) and RNA quality was verified with Bioanalyzer (2100 Agilent Technology).
Real Time PCR was performed on ABI PRISM 7900 apparatus Raw data from ABI7900 were exported in text format. […] Each RNA samples were reverse transcribed and quantified in triplicate.
Samples of lung and supernatants were kept on ice during all experiment. For extraction, the manufacturer recommends 10 mg of tissue for 100 μl T-Per+1 μl “Halt-protease” (100×).
50 ml of T-Per buffer were prepared, to which 500 μl of “Halt-protease” (100×) were added, and the mixture was kept on ice. Samples of 50 to 70 mg of lung just thawed were weighed and cut into small pieces, and 1 ml of cold PBS was added to wash the tissue. The mixture was centrifuged at 500 g during 5 min at 4° C., and the supernatant was discarded. 100 μl/10 mg of T-Per+antiproteases (100×) were added, crushing the lung with a Potter, with 5 or 6 twists, up and down. The mixture was centrifuged at 10000 g during 5 min at 4° C. The supernatant was removed, aliquoted and kept at −20° C. for the subsequent measurement of biomarkers.
All proteins were quantified with ELISA Kit, according to the instructions of the manufacturers: • osteopontin: Quantikine Mouse Osteopontin immunoassay, R&D SYSTEMS®, Ref:MOST00 • MCP-1: Quantikine Mouse CCL2/JE/MCP-1 ELISA Kit, R&D SYSTEMS®, ref: MJE00 • TIMP-1: Mouse TIMP-1, R&D SYSTEMS®, Ref: TM100.
All parameters were analysed using Graphpad software (version 5.1). The parameters were analysed as followed: • Using one-way ANOVA (treatment) to compare groups (1, 2 and 3). […] When ANOVA was found significant, a Dunnett's test was used to compare group 1 to group 4, to group 5, to group 6 and to group 7).

mouse PPARδ = target: T1, mouse PPARδ (Mus musculus, UniProt P35396); assay: Transient transactivation assay, Cos-7 cells, chimeric PPARδ-Gal4, luciferase reporter; format: cell-based; details: Gal4 chimera, mean of 5 experiments, estimated (plateau not reached)
T1 sequence (P35396 210-440 limits assumed): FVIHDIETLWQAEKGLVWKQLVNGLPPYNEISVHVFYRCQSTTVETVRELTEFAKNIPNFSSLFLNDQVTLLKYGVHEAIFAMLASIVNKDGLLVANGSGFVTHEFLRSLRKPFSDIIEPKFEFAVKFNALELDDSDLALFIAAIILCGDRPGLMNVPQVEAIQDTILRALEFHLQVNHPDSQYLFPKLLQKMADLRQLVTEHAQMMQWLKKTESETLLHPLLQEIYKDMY
Protocol: (§2) Transfections were performed by a chemical agent (Jet PEI).

human PPARδ = target: T2, human PPARδ (Homo sapiens, UniProt Q03181); assay: as above; format: cell-based; details: Gal4 chimera, mean of 6 experiments
T2 sequence (Q03181 211-441 limits assumed): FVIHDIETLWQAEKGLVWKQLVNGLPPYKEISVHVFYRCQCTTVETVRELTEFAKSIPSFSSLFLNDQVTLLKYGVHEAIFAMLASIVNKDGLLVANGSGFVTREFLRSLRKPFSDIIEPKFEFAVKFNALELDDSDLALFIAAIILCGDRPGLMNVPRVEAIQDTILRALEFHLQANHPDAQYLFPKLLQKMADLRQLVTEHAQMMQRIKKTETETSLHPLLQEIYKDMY
Protocol: as §2

O=C(O)CCCc1cc2cc(Cl)ccc2n1S(=O)(=O)c1ccc2ncsc2c1 [compound A, 5-Chloro-1-[(6-benzothiazolyl)sulfonyl]-1H-indole-2-butanoic acid]
IC50 [1]: 11.5 µM
IC50 [2]: 10.9 µM
MCP-1 expression (lung) (bleomycin-exposed mice; 30 mg/kg/day po 15 days): inhibited MCP-1 expression compared to vehicle without reaching significance
TIMP-1 expression (lung) (bleomycin-exposed mice; 30 mg/kg/day po 15 days): inhibited TIMP-1 expression compared to vehicle without reaching significance
lung MCP-1 levels (bleomycin-exposed mice; 30 mg/kg/day po 15 days): reduced MCP-1 levels compared to vehicle without reaching significance
lung TIMP-1 levels (bleomycin-exposed mice; 30 mg/kg/day po 15 days): significantly reduced TIMP-1 levels
lung osteopontin levels (bleomycin-exposed mice; 30 mg/kg/day po 15 days): reduced osteopontin levels compared to vehicle without reaching significance
osteopontin expression (lung) (bleomycin-exposed mice; 30 mg/kg/day po 15 days): significantly inhibited osteopontin expression
Col1a expression (lung) (bleomycin-exposed mice; 100 mg/kg/day po 15 days): significantly inhibited Col1a expression
Col3a expression (lung) (bleomycin-exposed mice; 100 mg/kg/day po 15 days): significantly inhibited Col3a expression
MCP-1 expression (lung) (bleomycin-exposed mice; 100 mg/kg/day po 15 days): inhibited MCP-1 expression compared to vehicle without reaching significance
TGFβR-1 expression (lung) (bleomycin-exposed mice; 100 mg/kg/day po 15 days): significantly inhibited TGFβR-1 expression
TIMP-1 expression (lung) (bleomycin-exposed mice; 100 mg/kg/day po 15 days): inhibited TIMP-1 expression compared to vehicle without reaching significance
collagen deposition (lung) (bleomycin-exposed mice; 100 mg/kg/day po 15 days): significantly decreased collagen deposition levels
fibronectin expression (lung) (bleomycin-exposed mice; 100 mg/kg/day po 15 days): significantly inhibited fibronectin expression
lung MCP-1 levels (bleomycin-exposed mice; 100 mg/kg/day po 15 days): reduced MCP-1 levels compared to vehicle without reaching significance
lung TIMP-1 levels (bleomycin-exposed mice; 100 mg/kg/day po 15 days): significantly reduced TIMP-1 levels
lung osteopontin levels (bleomycin-exposed mice; 100 mg/kg/day po 15 days): reduced osteopontin levels compared to vehicle without reaching significance
osteopontin expression (lung) (bleomycin-exposed mice; 100 mg/kg/day po 15 days): significantly inhibited osteopontin expression
EC50 (mouse PPARδ): 2 µM
EC50 (human PPARδ): 0.53 µM
